Here are results for three compounds from paper PMC9147192, “Small Molecule Arranged Thermal Proximity Coaggregation (smarTPCA)—A Novel Approach to Characterize Protein–Protein Interactions in Living Cells by Similar Isothermal Dose–Responses” (International Journal of Molecular Sciences, 2022).

“And” between values parts separate entries of the source, which are not always exact repeats. Equal values may be shown once.

Experiment [1] deals with T1, MAPK14 (Homo sapiens, UniProt Q16539). Put plainly: CETSA in living HL-60 cells, immunoblot. It counts as cell-based. The protocol:
First, we conducted CETSA experiments according to Jafari et al.. […] Subsequent SDS-PAGE and immunoblotting were performed according to optimized conditions allowing for parallel detection of MAPK14, MAPKAPK2, MAPKAPK3, and GSK-3α (Supplementary Figure S1).
HL-60 cells (ATCC No. CCL-240) were expanded to about […] in 80 mL cell culture medium (RPMI-1640 supplemented with 10% (v/v) FBS, 1% (v/v) penicillin-streptomycin and 1% (v/v) L-glutamine solution) and divided into four aliquots (20 mL each, 25 million cells per flask). […] The same volume of DMSO was added to the remaining aliquot serving as the vehicle (DMSO) control. After incubation (1 h, 37 °C, 5% CO2, in cell culture CO2 incubator), the cell suspensions were transferred into 50 mL conical tubes, cell number and viability were determined, and after centrifugation (300 relative centrifugal force (rcf), 3 min, room temperature (r.t.)), the supernatants were completely removed and discarded. The cells were washed using 20 mL Dulbecco’s phosphate-buffered saline (PBS), respectively, by resuspension and centrifugation (300 rcf, 3 min, r.t.). After the complete removal of the supernatants, the cells were transferred into pre-weighed 2 mL Eppendorf tubes using 0.5 mL PBS (r.t.), respectively, for resuspending. After centrifugation (300 rcf, 3 min, r.t.) and removing as much as possible of the supernatants, the cell wet weights were determined.
The suspensions were shortly centrifuged (1 s or less) using a benchtop centrifuge that was equipped with an inset for PCR tubes to release trapped air and to achieve an even liquid level without pelleting the cells. The 100 µL cell suspensions were then temperature treated by a 7 min pre-incubation at r.t., a 3 min incubation at the following different temperatures in the PCR cycler (DNA Engine Tetrad 2, lid temperature 70 °C, gradient block 1: 36–55 °C, gradient block 2: 48–67 °C), and a 3 min post-incubation at r.t. in a metal heating block for uniform heat dissipation.
The cells were lysed by four freeze/thaw cycles consisting of thawing the samples (in a heat block set to 25 °C and shaking at 1250 rpm) accompanied by mixing them several times by inversion and then shock freezing them again in liquid nitrogen. The resulting lysates were kept cold (on ice or 4 °C) from then on. After centrifugation (20,000 rcf, 30 min, 4 °C) to pellet the cell debris together with precipitated and aggregated proteins, the supernatants were recovered and, after determining the total protein concentration (Pierce 660 nm Protein Assay, BSA as standard), the resulting cell extracts containing the fraction of soluble, non-denatured proteins were shock frozen in liquid nitrogen and stored at −80 °C.
For each sample set comprising either ten temperature range samples or ten compound concentration range samples, the same volume of the cell extracts containing the fraction of soluble, non-denatured proteins was used for further analysis. This volume was determined using the two lowest temperature samples (36.5 and 41.2 °C) per temperature range sample set so that they contained an average of 5 µg total protein (e.g., 2.78 µL for all temperature range samples of a sample set whose two lowest temperature samples contain an average of 1.8 mg/mL protein). For the compound concentration range experiments, all samples of a set were used for averaging.

Experiment [2] addresses T1, MAPK14. Put plainly: TPP-CCR in living HL-60 cells. To be noted: […] °C, TMT-MS.
In the next experiment the target is STX4 (Homo sapiens, UniProt Q12846). Put plainly: TPP-CCR in living HL-60 cells.
Chain of STX4 (Q12846 whole entry): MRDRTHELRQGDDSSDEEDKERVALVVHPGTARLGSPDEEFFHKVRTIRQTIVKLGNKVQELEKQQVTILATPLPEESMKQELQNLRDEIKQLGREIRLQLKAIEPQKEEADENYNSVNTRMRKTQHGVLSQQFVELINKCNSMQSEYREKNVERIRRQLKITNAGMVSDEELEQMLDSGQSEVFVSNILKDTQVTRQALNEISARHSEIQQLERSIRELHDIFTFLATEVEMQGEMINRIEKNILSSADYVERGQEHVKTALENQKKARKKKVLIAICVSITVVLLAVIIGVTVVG
A further experiment addresses NUDT1 (Homo sapiens, UniProt P36639). Put plainly: TPP-CCR in living HL-60 cells.
Another experiment deals with MRPS34 (Homo sapiens, UniProt P82930). Put plainly: TPP-CCR in living HL-60 cells.
For a further experiment, the target named is T2, MAPK3 (Homo sapiens, UniProt P27361).
T2 construct: endogenous in cells; host or cells: HL-60 (ATCC CCL-240)
T2 sequence (P27361 whole entry): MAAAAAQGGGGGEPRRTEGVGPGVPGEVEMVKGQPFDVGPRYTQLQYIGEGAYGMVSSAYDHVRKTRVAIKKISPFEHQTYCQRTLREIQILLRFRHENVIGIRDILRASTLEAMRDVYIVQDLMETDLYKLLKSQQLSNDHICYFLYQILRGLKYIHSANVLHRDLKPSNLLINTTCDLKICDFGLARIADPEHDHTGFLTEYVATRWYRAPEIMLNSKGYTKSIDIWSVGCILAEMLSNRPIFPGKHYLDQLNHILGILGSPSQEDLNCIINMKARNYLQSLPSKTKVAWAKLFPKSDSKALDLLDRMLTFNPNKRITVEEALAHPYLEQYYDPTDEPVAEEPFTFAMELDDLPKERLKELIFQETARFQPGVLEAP
Put plainly: TPP-CCR in living HL-60 cells. The class given is cell-based. From the text: Therefore, we performed TPP with compound concentration range (TPP-CCR) experiments according to published procedures. In brief, after preparing tryptic peptides from the non-denatured protein fractions (used for immunoblotting in the previous sections) applying the SP3 method, the peptides were labeled using TMT10plex, coding for inhibitor concentration, and the samples belonging to a TMT set were combined, offline high-pH fractionated, and analyzed by MS.
HL-60 cells were expanded as described above for CETSA and TPP-TR to 1.25 million cells per milliliter. […] A number of 2.5 million cells in 2 mL of medium were added to each tube and incubated (1 h, 37 °C). […]
For each sample set comprising ten compound concentration range samples, a same volume of the cell extracts containing the fraction of soluble, non-denatured proteins, corresponding to an average of 5 µg total protein, was used for further analysis. The calculated volume was respectively transferred into PCR tubes of a tube strip and supplemented with SDS sample buffer without DTT and bromophenol blue (final concentrations: 7.5% glycerol, 3% SDS, 37.5 mM Tris/HCl pH 7.0) and ddH2O to a final volume of 10 µL, respectively. […]

Another experiment concerns MAPK8. More on the design: method as in PMID 23398362. Particulars: cited from earlier work.
The next experiment deals with MAPKAPK3. More on the design: method as in PMID 23398362. Particulars: cited from earlier work.
Setting [3] is: living HL-60 cells, […] °C, TMT-MS.

T1 sequence (Q16539 whole entry): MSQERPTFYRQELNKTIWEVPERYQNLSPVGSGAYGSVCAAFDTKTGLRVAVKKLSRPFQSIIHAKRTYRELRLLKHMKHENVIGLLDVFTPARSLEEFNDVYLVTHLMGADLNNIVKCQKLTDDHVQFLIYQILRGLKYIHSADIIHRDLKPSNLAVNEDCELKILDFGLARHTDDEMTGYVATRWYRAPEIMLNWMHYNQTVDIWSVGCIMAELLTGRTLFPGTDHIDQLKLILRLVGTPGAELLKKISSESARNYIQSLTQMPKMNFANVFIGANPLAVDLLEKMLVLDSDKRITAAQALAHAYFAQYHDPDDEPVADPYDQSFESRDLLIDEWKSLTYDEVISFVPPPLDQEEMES

Take `Cn1c(NC[C@@H](N)Cc2ccccc2)nc(-c2ccncc2)c(-c2ccc3ccccc3c2)c1=O` [AMG-548]: the ΔTm at 20 µM at MAPK14 [1] (HL-60, living HL-60 cells, 20 µM inhibitor, read-out: ΔTm to DMSO (MAPK14)) is 14.8 °C. Also, on MAPK14 [1] (MAPK14, living cells), the Tm is 60.58 °C. The “ΔTm to DMSO” value at MAPK14 [1] (MAPK14, living cells) was found to be 14.76 °C. The “Tm (MAPK14)” value at MAPK14 [1] (living HL-60 cells, 20 µM inhibitor) was 60.6 ± 0.5 °C and 60.58 °C. The “ΔTm to DMSO (MAPK14)” value on MAPK14 [1] (living HL-60 cells, 20 µM inhibitor, 20 µM) came out at 14.76 °C. The “Hill slope (MAPK14)” value at MAPK14 [2] worked out at 0.57. The EC50 was 0.132 µM at STX4, 2.29 µM at NUDT1 and 0.0603 µM on MRPS34. For the same compound, the “Hill slope (STX4)” value on STX4 (setting [3]) was 0.27. The “Hill slope (NUDT1)” value at NUDT1 (setting [3]) was found to be 0.77. Besides, the “Hill slope (MRPS34)” value at MRPS34 (setting [3]) is 0.26.
Take `Cc1cnc(Nc2ccc(F)cc2Cl)nc1-c1c[nH]c(C(=O)N[C@H](CO)c2cccc(Cl)c2)c1` [ERK 11e]: the Hill slope at MAPK3 (TPP-CCR, living cells, MAPK3) was found to be 0.59. Further, the “Hill slope (MAPK3)” value at MAPK3 (setting [3]) is 0.59.
For the compound `C[S+]([O-])c1ccc(-c2nc(-c3ccncc3)c(-c3ccc(F)cc3)[nH]2)cc1` (stereo not shown) [SB203580], the “activity against MAPK8” value with MAPK8 is listed as “inactivity”. In addition, the “activity against MAPKAPK3” value in the experiment with MAPKAPK3 was “inactivity”.

The ΔTm is the change in melting temperature against a reference sample. Broadly, the EC50 is the concentration giving half of the maximal effect. The low end stands for a more potent agent, the high end for a less potent agent. As a reminder, the Hill slope is a measure of the steepness of the concentration-response curve.
